From BigSolDB 2.1

CC(=O)c1ccc(S(C)(=O)=O)cc1
solubility (mole fraction)
Conditions	in cyclohexane	in ethanol	in ethyl acetate	in ethylene glycol	in isobutanol	in methanol	in n-butanol	in n-hexane	in n-propanol
278.15 K	0.0049	0.0123	0.0253	0.0179	0.0074	0.0161	0.0087	0.003	0.0104
283.15 K	0.0056	0.0137	0.027	0.0194	0.0083	0.0173	0.0096	0.0038	0.0114
288.15 K	0.0065	0.0154	0.0295	0.0211	0.0094	0.019	0.0111	0.0049	0.0129
293.15 K	0.0079	0.0172	0.0326	0.0238	0.0108	0.0215	0.0125	0.0062	0.0144
298.15 K	0.0091	0.0197	0.0361	0.0273	0.0124	0.0246	0.014	0.0077	0.0162
303.15 K	0.0109	0.0221	0.0402	0.0307	0.0142	0.0281	0.016	0.0099	0.0185
308.15 K	0.0129	0.0249	0.0446	0.035	0.016	0.0321	0.018	0.0121	0.021
313.15 K	0.0154	0.0283	0.0501	0.0395	0.0186	0.0369	0.0205	0.0146	0.0241
318.15 K	0.0182	0.0325	0.0565	0.045	0.0211	0.0421	0.0234	0.0171	0.0273
323.15 K	0.0217	0.0381	0.0639	0.0507	0.0246	0.0481	0.0271	0.0204	0.0318
328.15 K	0.0255	0.0441	0.0745	0.0597	0.0284	0.0568	0.0315	0.0241	0.0365
